Measurements from patent publication US20260308116A1, “TERTIARY AMINE COMPOUNDS CONTAINING AN ALKYNE OR AN AZIDE MOIETY AND THEIR USE” (INSTITUT NATIONAL DE LA SANTÉ ET DE LA RECHERCHE MÉDICALE, priority 2023, published 2026).

How the values were obtained:
DNA [1] = details: photoactivated by UVA (Dunnick et al. 1987); cited from earlier work
FA pathway = details: Semlow et al. 2016; Li et al. 2020; cited from earlier work
HeLa cells [2] = assay: Reverse alkaline comet assay (ICL formation)
DNA [3] = assay: Detection of click agents in cells by microscopy (Alexa Fluor 647 azide)
[4] = test system: primary fibroblast cells from FA patients (FA1, FA2); assay: Repair of lesions in FA patient primary fibroblasts
HeLa cells [5] = assay: Dual parameter plot assay (click / propidium iodide)
HeLa cells [6] = assay: Clonogenic survival assay
HeLa cells [7] = assay: Detection of G2 arrest by flow cytometry
HeLa FANCD2 KO cells = assay: Dual parameter plot assay (click / propidium iodide)
[8] = test system: primary fibroblast cells from non-FA subjects (C3, C4); assay: Repair of lesions in non-FA primary fibroblasts; assay type: cell-based
Description: HeLa, Jurkat and FA or XP primary cells (10^6 per dish) were seeded into 10 cm culture dishes and incubated overnight in culture medium. The following day, samples were treated with 0.5 μM click-Melphalan (Example 1), 0.5 μM click-MonoMelphalan (Example 2) or DMSO vehicle for 1 h. After treatment, cells were PBS-washed and released into medium. At designated time points, samples were harvested and fixed in EtOH 70%. Fixed cells where incubated in a click reaction buffer (50 μM Alexa fluor 647 azide, 1 mM copper (II) sulfate, 100 mM sodium ascorbate, 100 mM Tris-HCl pH 8.0) for 30 min at room temperature and then washed extensively using 3×5% FBS in PBS rinses to remove unbound reporter. Samples were stained with 5 μg/mL propidium iodide in 3% FBS in PBS and then analyzed using an LSR Fortessa flow cytometer (BD Biosciences, San Jose, CA). Ten thousand events were collected for each sample and gated using forward-versus side-scatter to eliminate cell debris and doublets. The data were analyzed using FlowJo software version 7.6.5 (Tree Star, San Carlos, CA).
FA patient skin fibroblast cells were cryopreserved at Saint-Louis Hospital (Paris, France). Informed consents were obtained from the patients and/or their relatives and IRB approval from the INSERM was given under the number 12-078. […]

[9] = test system: cells from subject C3 (non-XP); assay: Repair of lesions in control (non-XP) fibroblasts
HeLa cells [10] = assay: Repair of lesions in HeLa cells, click reaction and flow cytometry
[11] = test system: fibroblast cells from XP patients (XP1, XP2); assay: Repair of lesions in XP patient fibroblasts

| SMILES | type of DNA lesions generated (DNA [1]) | repair of psoralen-induced ICLs by FA (FA pathway) | IR-induced tail moment after pre-treatment (HeLa cells [2]) | visual comet score in the absence of IR (HeLa cells [2]) | fluorescence in cells after click reaction (DNA [3]) | cells still positive for melphalan [4] [%] | persistence of melphalan-induced lesions [4] | cell cycle phase of positive cells at 12 h (HeLa cells [5]) | fluorescence at 24 h (HeLa cells [5]) | repair at 48 h (HeLa cells [5]) | number of colonies formed (clonogenic survival) (HeLa cells [6]) | toxicity compared to mono-melphalan (HeLa cells [6]) | overall biological response, melphalan vs click-melphalan (HeLa cells [7]) | cell cycle block and repair until 48 h (HeLa FANCD2 KO cells) | cells still positive for melphalan [8] | cells still positive for melphalan [9] [%] | effect of added non-clickable melphalan on repair of click-mono-melphalan monoadducts (HeLa cells [10]) | cells still positive for melphalan [11] [%] |
| --- | --- | --- | --- | --- | --- | --- | --- | --- | --- | --- | --- | --- | --- | --- | --- | --- | --- | --- |
| O=c1ccc2cc3ccoc3cc2o1 [Psoralen] | almost exclusively ICLs | not preferentially repaired by FA |  |  |  |  |  |  |  |  |  |  |  |  |  |  |  |  |
| N[C@@H](Cc1ccc(N(CCCl)CCCl)cc1)C(=O)O [melphalan, (S)-2-amino-3-(4-(bis(2-chloroethyl)amino)phenyl)propanoic acid, reference compound] |  |  | large decrease in the IR-induced tail moment | neither Melphalan, click-Melphalan (Example 1), mono-melphalan (Comparative Example 1) nor click-mono-melphalan (Example 2) generated a visual comet score beyond the vehicle-treated control | do not present significant levels of fluorescence | ~100 | persisted in the FA patient cells up to 48 h | most of the HeLa positive cells are blocked in late S-G2 | a decrease in fluorescence is observed at 24 h | full repair at 48 h | similarly reduces the number of colonies formed with no significative differences | higher toxicity of melphalan compared to mono-melphalan | equivalent biological response | remained blocked in late S-G2 phase until 48 h with unrepaired DNA lesions | less than 25% | 25 | inhibited by the addition of non-clickable melphalan during the first 24 h of recovery | ~75 |
